Results published in BigSolDB 2.1.

## CS(=O)(=O)c1ccc([C@@H](O)[C@@H](CF)NC(=O)C(Cl)Cl)cc1
In THF, 279.65 K
  solubility (mole fraction): 0.0293
In THF, 284.55 K
  solubility (mole fraction): 0.0317
In THF, 289.35 K
  solubility (mole fraction): 0.0342
In THF, 294.5 K
  solubility (mole fraction): 0.0374
In THF, 297.65 K
  solubility (mole fraction): 0.0398
In acetone, 279.25 K
  solubility (mole fraction): 0.0261
In acetone, 284.35 K
  solubility (mole fraction): 0.0294
In acetone, 289.1 K
  solubility (mole fraction): 0.0327
In acetone, 294.45 K
  solubility (mole fraction): 0.0368
In acetone, 297.75 K
  solubility (mole fraction): 0.0396
In ethanol, 278.55 K
  solubility (mole fraction): 0.00126
In ethanol, 283.45 K
  solubility (mole fraction): 0.00153
In ethanol, 288.8 K
  solubility (mole fraction): 0.00212
In ethanol, 293.7 K
  solubility (mole fraction): 0.00259
In ethanol, 298.45 K
  solubility (mole fraction): 0.00315
In methanol, 278.55 K
  solubility (mole fraction): 0.00408
In methanol, 283.5 K
  solubility (mole fraction): 0.00488
In methanol, 288.85 K
  solubility (mole fraction): 0.00598
In methanol, 293.8 K
  solubility (mole fraction): 0.00724
In methanol, 298.65 K
  solubility (mole fraction): 0.00878
In n-propanol, 278.35 K
  solubility (mole fraction): 0.0008
In n-propanol, 284.05 K
  solubility (mole fraction): 0.00106
In n-propanol, 289 K
  solubility (mole fraction): 0.00134
In n-propanol, 293.5 K
  solubility (mole fraction): 0.00165
In n-propanol, 298.65 K
  solubility (mole fraction): 0.00211
In water, 278.8 K
  solubility (mole fraction): 2.48e-05
In water, 283.85 K
  solubility (mole fraction): 2.86e-05
In water, 289.1 K
  solubility (mole fraction): 3.62e-05
In water, 293.95 K
  solubility (mole fraction): 4.64e-05
In water, 298.7 K
  solubility (mole fraction): 5.49e-05
